Source: PMC12655446, “Colon-Specific Delivery of Probenecid Enhances Therapeutic Activity of the Uricosuric Agent Against Rat Colitis” (Pharmaceutics, 2025)
Entries after “also recorded” stand apart in the source; their conditions may differ.

Experiments:
[1] = system: dextran sulfate sodium-induced colitis; design: method as in PMID 40602551; conditions: mice, oral 100 mg/kg; cited from earlier work
Px-1 = system: Px-1; design: method as in PMID 18596212; conditions: cited from earlier work
[2] = Distribution coefficient (log D6.8), isotonic phosphate buffer (pH 6.8)/n-octanol; assay type: physicochemical
Experimental: Distribution coefficients (log D6.8) of PBN, PBN-GA, and PBN-AA were measured using an isotonic phosphate buffer (pH 6.8)/n-octanol system, as described previously.

[3] = Chemical stability in HCl-NaCl buffer (pH 1.2) and isotonic phosphate buffer (pH 6.8); assay type: physicochemical
Experimental: The chemical stabilities of PBN-GA and PBN-AA were tested in HCl-NaCl buffer (pH 1.2) and isotonic phosphate buffer (pH 6.8). Changes in the concentrations of PBN-GA and PBN-AA were monitored by HPLC.

[4] = Incubation in small intestinal contents of rats; assay type: in vitro ADME, rat; conditions: 10 h
Experimental: Male Sprague-Dawley rats (250–260 g) were euthanized with CO2 prior to making a midline abdominal incision. The small intestinal contents were collected and suspended in isotonic phosphate buffer (pH 6.8) to prepare a 20% (w/v) suspension. PBN-GA (2 mM) was dissolved in 3 mL of isotonic phosphate buffer (pH 6.8), were mixed with 3 mL of the small intestinal suspension and incubated at 37 °C. A solution of PBN-AA was created with the same method. At designated time points, 0.5 mL of the reaction mixture was collected and centrifuged at 10,000× g at 4 °C for 10 min, and 0.1 mL of the supernatant was mixed with 0.9 mL of methanol. After vortexing and centrifugation under the same conditions, the final supernatant was filtered through a 0.45 μm membrane, and 20 μL of the filtrate was analyzed for PBN concentration by HPLC.

Caco-2 cell monolayer = experiment: Cell permeability assay across Caco-2 cell monolayer; assay type: in vitro ADME; conditions: 500 μM apical, up to 24 h, apical to basolateral
Experimental: The cell permeabilities of PBN, PBN-GA, and PBN-AA were evaluated using a Caco-2 cell monolayer model. Caco-2 cells were seeded at a density of 4 × 10^5 cells per insert in Transwell 6-well plates with a pore size of 0.4 μm (SPL Life Sciences, Pocheon, Gyeonggi-do, Republic of Korea). The cells were cultured in Dulbecco’s modified eagle medium (DMEM) supplemented with 10% Fetal bovine serum (FBS) and 1% penicillin/streptomycin until the transepithelial electrical resistance (TEER) measured using an EMD Millipore system (Billerica, MA, USA) reached 2000 Ω·cm^2, indicating an intact monolayer.
For the transport study, the apical (donor) compartment was filled with 2 mL of DMEM without phenol red containing the test compounds (500 μM), and 3 mL of DMEM without phenol red was placed in the basolateral (acceptor) compartment. Samples were collected from the basolateral side at designated time intervals up to 24 h to determine the concentration of the permeated compounds using HPLC. Each experiment was performed in triplicate, and monolayer integrity was confirmed by maintaining TEER values above 2000 Ω·cm^2 before and after the assay.

[5] = PBN concentration in the cecum after oral gavage; assay type: in vivo; conditions: rat
Experimental: For cecal distribution studies, rats were orally administered PBN (30.0 mg/kg) or PBN-GA (43.6 mg/kg, equivalent to 30.0 mg/kg of PBN) in 1.0 mL PBS. At 2, 4, and 8 h post-dosing, the cecal contents were harvested and suspended in isotonic phosphate buffer (pH 6.8) to prepare 10% (w/v) homogenates. Quantitative analysis of PBN in the cecal suspensions was performed using HPLC, following the procedure described in Section 2.7.

DNBS-induced rat colitis = experiment: Anticolitis effects in DNBS-induced rat colitis; assay type: in vivo
Experimental: Experimental colitis was induced in rats as previously described. Briefly, male Sprague–Dawley rats underwent to a 24 h fasting period with free access to water. Anesthesia was induced using 3% isoflurane and maintained at 2.5% in 1 L/min oxygen using a Small Animal O2 Single Flow Anesthesia System (LMS, Pyeongtaek, Republic of Korea). Once the animals no longer reacted to external tactile stimulation, a rubber cannula (2 mm outer diameter) was carefully inserted rectally, positioning the tip approximately 8 cm from the anus to target the splenic flexure. A solution of DNBS (48.0 mg) in 0.4 mL of 50% aqueous ethanol was then instilled into the colon via cannula to induce colitis.
Three days after the induction of colonic inflammation, the respective drugs were orally administered to the rats once daily for 6 consecutive days. The experimental scheme and treatment group assignments are shown in Supplementary Material S1. Colonic damage scores (CDS) were determined based on previously established scoring criteria. The scoring system is shown in Supplementary Material S2. Three independent observers blinded to the treatment groups conducted the CDS assessments. Myeloperoxidase (MPO) activity in the distal colon (4 cm) was determined as previously. One unit of MPO activity was defined as 1.0 μmol min^−1 of peroxide degradation at 25 °C.
Western blot analysis was performed on lysates derived from distal colon tissues following a previously established protocol. The detailed procedure is shown in Supplementary Material S3. Western blot images were quantified using Image Lab software (version 5.2 build 14; Bio-Rad, Hercules, CA, USA). Results are presented as the mean of the quantified values for each Western blot in the figures (n = 5).
The levels of inflammatory cytokine-induced neutrophil chemoattractant-3 (CINC-3) in the inflamed distal colon were determined using a CINC-3 enzyme-linked immunosorbent assay (ELISA) kit (R&D Systems, Minneapolis, MN, USA) as previously described.

[6] = oral once daily for 6 days, PBN-GA 21.8 and 43.6 mg/kg

SMILES	logD [2]	change in concentration of the conjugate (stability) ([3]; buffer pH 1.2, 10 h)	change in concentration of the conjugate (stability) ([3]; buffer pH 6.8, 10 h)	change in concentration of the conjugate (stability) [4]	transport via the Caco-2 cell monolayer compared with PBN (Caco-2 cell monolayer)	further results
N[C@@H](CCC(=O)O)C(=O)O [GA, glutamic acid]	–	–	–	–	–	effect on dextran sulfate sodium-induced colitis [1]: attenuates
CCCN(CCC)S(=O)(=O)c1ccc(C(=O)O)cc1 [PBN, Probenecid]	0.3	–	–	–	–	concentration required for significant inhibition of Px-1 (Px-1): 1 mM
CCCN(CCC)S(=O)(=O)c1ccc(C(=O)N[C@@H](CC(=O)O)C(=O)O)cc1 [PBN-AA, aspartic acid-conjugated PBN]	-1.04	no significant change	no significant change	no significant change	lower transport	–
CCCN(CCC)S(=O)(=O)c1ccc(C(=O)N[C@@H](CCC(=O)O)C(=O)O)cc1 [PBN-GA, glutamic acid-conjugated PBN]	-1.22	no significant change	no significant change	no significant change	lower transport	amount of PBN detected in the cecum compared with oral PBN ([5]; oral 43.6 mg/kg (equivalent to 30.0 mg/kg PBN), 2, 4 and 8 h): much greater amount of PBN; amount of PBN in the large intestine relative to oral PBN ([5]; oral, all time points): ten-fold; CINC-3 level in inflamed colon (ELISA) (DNBS-induced rat colitis; [6]): dose-dependently diminished; COX-2 level in inflamed colon (Western blot) (DNBS-induced rat colitis; [6]): dose-dependently diminished; iNOS level in inflamed colon (Western blot) (DNBS-induced rat colitis; [6]): dose-dependently diminished; mucosal recovery (H&E staining of inflamed colon) (DNBS-induced rat colitis; [6]): more effective than PBN and SSZ; myeloperoxidase (MPO) activity in inflamed distal colon (DNBS-induced rat colitis; [6]): dose-dependently diminished; colonic tissue damage (colonic damage score, CDS) (DNBS-induced rat colitis; oral once daily for 6 days, PBN-GA 21.8 and 43.6 mg/kg, PBN 30.0 mg/kg, SSZ 50.0 mg/kg): greater with PBN-GA than with PBN; also recorded: more effective than SSZ; suppression of the inflammatory response compared with PBN and SSZ (DNBS-induced rat colitis; regardless of the dose of PBN-GA): more effective in suppressing the inflammatory response than PBN and SSZ
